In patent US20110200165A1, “CONTRAST AGENT-REINFORCED RADIOTHERAPY HAVING HIGH-OUTPUT TUBES” (BAYER SCHERING PHARMA AKTIENGESELLSCHAFT, priority 2008, published 2011):

What was measured:
[1] = test system: glioblastoma (GS9L) rat tumor model; experiment: Contrast medium-enhanced radiation therapy compared with linear accelerator, glioblastoma (GS9L) rat tumor model; format: in vivo
Experimental: For examination of the therapeutic effectiveness of the contrast medium-enhanced radiation therapy with a high dose rate, the latter was compared to the therapeutic standard, i.e., a radiation therapy on the linear accelerator. To this end, a glioblastoma (GS9L) rat tumor model was used. Male Fischer rats were stereotactially inoculated with 5 µl of cell suspension (10^6 glioblastoma 9L cells) in the brain. After 8 days, the to growth was ensured by means of MRT, and the animals were divided into 3 groups. The animals of group 1 (n=6) obtained no therapy and were used as a control. Animals of group 2 (n=5) were treated on the linear accelerator (Novalis, Brain Lab AG, Feldkirchen) at 2 MV with a total dose of 18 Gy. This dose was administered to 3 in fractions of 6 Gy each on days 9, 10 and 11 after inoculation. The animals of group 3 passed through a contrast medium-enhanced radiation therapy on days 9-11 with a total dose of 18 Gy and a tube voltage of 140 kV (Volume Zoom, Siemens Medical Solutions, Erlangen). Six therapy sessions were carried out (2 per day at 4-hour intervals) and in each case a dose of 3 Gy was administered to the animals within 90 seconds. This corresponds to a tumor-dose rate of 2 Gy/minute. […]

[2] = test system: glioblastoma (GS9L) rat tumor model; experiment: Contrast medium-enhanced CT radiation therapy, survival, glioblastoma (GS9L) rat tumor model; format: in vivo; conditions: 2 g of iodine/kg i.v. within 6 minutes before each of 6 sessions of 3 Gy, 140 kV, total 18 Gy; versus irradiation with common salt and untreated
Text: The therapeutic effectiveness of the contrast medium-enhanced radiation therapy was examined on a glioblastoma (GS9L) rat tumor model. To this end, male Fisher rats were inoculated stereotactically with 5 […]I of cell suspension (10^6 glioblastoma 9L cells) in the brain. After 8 days, the tumor growth was ensured by means of MRT, and the animals were divided into 3 groups (n=5). The animals of group 1 received no therapy and were used as a control. Animals of groups 2 and 3 passed through a CT radiation therapy with a total dose of 18 Gy at a tube voltage of 140 kV (Volume Zoom, Siemens Medical Solutions, Erlangen). Six therapy sessions were performed (2 per day at an interval of 4 hours), and one dose of 3 Gy was administered to the animals in each case. The radiation was limited to the tumor using the layer collimators and introduced within 90 s, which corresponds to a tumor-dose rate of 2 Gy/minute. Before each therapy session, a dimeric contrast medium (Isovist 300, Bayer Schering Pharma, Berlin) in a dose of 2 g of iodine/kg of body weight was administered to the animals of group 2. The latter was administered intravenously, within 6 minutes. With this application scheme, a maximum iodine-tumor concentration in a short plateau phase of between 6 and 7 minutes is achieved (FIG. 14). […]

[3] = rat, in vivo
Text: The contrast medium can also be intraarterially introduced into the vessel as in interventional angiography. To this end, a catheter is positioned in front of the outlet of the vascular section of interest. In the GS9L rat tumor model, the contrast medium concentration in the tumor was studied at a low flow rate for an intraarterial administration in 4 animals. To this end, the carotid artery was catheterized on day 10 after inoculation of the tumor cells, and a cannula was placed in the internal carotid artery (19). Via the latter, Isovist 300 was administered in a dosage of 2 g of iodine within 6 minutes. CT images of the rat head were made at the points in time 0, 1, 2, . . . 15 and 20 minutes after the beginning of the injection. For evaluation, the DynEva equipment software was used. The mean absorption in the tumor, adjacent healthy brain areas and in adjacent skin areas was determined for each point in time and converted into the corresponding iodine concentration. […] Relative to an intravenous administration, the plateau phase is extended to 60-120 seconds, and the drop in iodine concentration is slower. During the contrast medium administration phase, iodine accumulates analogously in the tumor and reaches a plateau after the end of the latter. […] In the healthy brain tissue, only very low iodine concentrations<0.5 mg/ml were observed.

SMILES: CN(C(=O)CC(=O)N(C)c1c(I)c(C(=O)NC(CO)C(O)CO)c(I)c(C(=O)NC(CO)C(O)CO)c1I)c1c(I)c(C(=O)NC(CO)C(O)CO)c(I)c(C(=O)NC(CO)C(O)CO)c1I (stereo not shown) [Isovist 300, Iotrolan]
- animals showing a significant therapy effect (survival time) ([1]; 2 g of iodine/kg i.v. within 6 minutes before each of 6 sessions of 3 Gy within 90 seconds, 140 kV, total 18 Gy): 2 of 6
- therapeutic result relative to standard therapy on the linear accelerator ([1]; same total dose 18 Gy, linear accelerator 2 MV, 3 fractions of 6 Gy): therapeutic advantage
- survival after contrast medium-enhanced radiation therapy [2]: considerable therapeutic advantage
- time of tumor iodine concentration maximum with plateau after the end of administration [3]: about 1 minute
